pIC50: −log10 of the molar value.
Experiments:
Cytochrome P450 2C19 = Cytochrome P450 2C19 (Homo sapiens, UniProt P33261); test: Inhibition of CYP2C19 in human liver microsomes using (S)-mephenytoin as substrate preincubated for 5 mins followed by NADPH cofactor addition and measured after 40 mins by LC-MS/MS analysis; assay type: ADME
Cytochrome P450 2C9 = Cytochrome P450 2C9 (Homo sapiens, UniProt P11712); test: Inhibition of CYP2C9 in human liver microsomes using diclofenac as substrate preincubated for 5 mins followed by NADPH cofactor addition and measured after 10 mins by LC-MS/MS analysis; assay type: ADME
[1] = Ratio of drug level in brain to plasma in Sprague-Dawley rat at 3 mg/kg, iv or 10 mg/kg, po administered as single dose via gavage by LC-MS/MS analysis; assay type: ADME, organism-based; settings: brain and plasma, read-out: BPR
[2] = Drug level in plasma of Sprague-Dawley rat at 10 mg/kg, po administered as single dose via gavage measured at 24 hrs by LC-MS/MS analysis; assay type: ADME, organism-based
[3] = Volume of distribution at steady state in Sprague-Dawley rat at 3 mg/kg, iv or 10 mg/kg, po administered as single dose via gavage by LC-MS/MS analysis; assay type: ADME, organism-based; settings: in vivo, read-out: Vdss
[4] = AUC (0 to 48 hrs) in Sprague-Dawley rat at 3 mg/kg, iv administered as single dose by LC-MS/MS analysis; assay type: ADME, organism-based; set-up: dose 3 mg/kg, time < 48 hr, route intravenous; settings: in vivo
[5] = Drug level in liver of Sprague-Dawley rat at 10 mg/kg, po administered as single dose via gavage measured at 32 hrs by LC-MS/MS analysis; assay type: ADME, organism-based; settings: read-out: Drug uptake
Cytochrome P450 3A4 = Cytochrome P450 3A4 (Homo sapiens, UniProt P08684); test: Inhibition of CYP3A4 in human liver microsomes using midazolam as substrate preincubated for 5 mins followed by NADPH cofactor addition and measured after 10 mins by LC-MS/MS analysis; assay type: ADME
[6] = Drug level in liver of Sprague-Dawley rat at 10 mg/kg, po administered as single dose via gavage measured at 2 hrs by LC-MS/MS analysis; assay type: ADME, organism-based; settings: read-out: Drug uptake
[7] = Clearance in Sprague-Dawley rat at 3 mg/kg, iv administered as single dose by LC-MS/MS analysis; assay type: ADME, organism-based; settings: in vivo
[8] = Oral bioavailability in Sprague-Dawley rat at 10 mg/kg administered as single dose via gavage by LC-MS/MS analysis; assay type: ADME, organism-based; settings: in vivo
[9] = Drug level in brain of Sprague-Dawley rat at 10 mg/kg, po administered as single dose via gavage measured at 32 hrs by LC-MS/MS analysis; assay type: ADME, organism-based; settings: read-out: Drug uptake
[10] = Ratio of AUC (0 to 48 hrs) in liver to plasma of Sprague-Dawley rat at 10 mg/kg, po administered as single dose via gavage by LC-MS/MS analysis; assay type: ADME, organism-based; settings: liver and plasma, read-out: Ratio AUC
[11] = Cmax in Sprague-Dawley rat at 10 mg/kg, po administered as single dose via gavage by LC-MS/MS analysis; assay type: ADME, organism-based; set-up: dose 10 mg/kg, route oral; settings: in vivo
Cytochrome P450 2D6 = Cytochrome P450 2D6 (Homo sapiens, UniProt P10635); test: Inhibition of CYP2D6 in human liver microsomes using dextromethorphan as substrate preincubated for 5 mins followed by NADPH cofactor addition and measured after 10 mins by LC-MS/MS analysis; assay type: ADME
[12] = Drug level in brain of Sprague-Dawley rat at 10 mg/kg, po administered as single dose via gavage measured at 24 hrs by LC-MS/MS analysis; assay type: ADME, organism-based; settings: read-out: Drug uptake
[13] = Ratio of AUC (0 to 48 hrs) in brain to plasma of Sprague-Dawley rat at 10 mg/kg, po administered as single dose via gavage by LC-MS/MS analysis; assay type: ADME, organism-based; settings: brain and plasma, read-out: Ratio AUC
[14] = Drug level in liver of Sprague-Dawley rat at 10 mg/kg, po administered as single dose via gavage measured at 24 hrs by LC-MS/MS analysis; assay type: ADME, organism-based; settings: read-out: Drug uptake
[15] = Drug level in plasma of Sprague-Dawley rat at 10 mg/kg, po administered as single dose via gavage measured at 48 hrs by LC-MS/MS analysis; assay type: ADME, organism-based
[16] = Clearance in Sprague-Dawley rat at 3 mg/kg, iv or 10 mg/kg, po administered as single dose via gavage by LC-MS/MS analysis; assay type: ADME, organism-based; settings: in vivo
[17] = Volume of distribution at steady state in Sprague-Dawley rat at 3 mg/kg, iv administered as single dose by LC-MS/MS analysis; assay type: ADME, organism-based; settings: in vivo, read-out: Vdss
[18] = Drug level in plasma of Sprague-Dawley rat at 10 mg/kg, po administered as single dose via gavage measured at 2 hrs by LC-MS/MS analysis; assay type: ADME, organism-based
[19] = Drug level in liver of Sprague-Dawley rat at 10 mg/kg, po administered as single dose via gavage measured at 8 hrs by LC-MS/MS analysis; assay type: ADME, organism-based; settings: read-out: Drug uptake
CYP2C9 [20] = test: Selectivity ratio of IC50 for CYP2C9 in human liver microsomes to IC50 for rat FFAH expressed in Escherichia coli; assay type: toxicity; settings: read-out: Ratio IC50
CYP3A4 [21] = test: Selectivity ratio of IC50 for CYP3A4 in human liver microsomes using midazolam as substrate to IC50 for human transmembrane domain deficient FFAH expressed in Escherichia coli; assay type: toxicity; settings: probe midazolam, read-out: Ratio IC50
CYP2C19 [22] = test: Selectivity ratio of IC50 for CYP2C19 in human liver microsomes to IC50 for rat FFAH expressed in Escherichia coli; assay type: toxicity; settings: read-out: Ratio IC50
CYP3A4 [23] = test: Selectivity ratio of IC50 for CYP3A4 in human liver microsomes using testosterone as substrate to IC50 for rat FFAH expressed in Escherichia coli; assay type: toxicity; settings: probe testosterone, read-out: Ratio IC50
CYP2C19 [24] = test: Selectivity ratio of IC50 for CYP2C19 in human liver microsomes to IC50 for human transmembrane domain deficient FFAH expressed in Escherichia coli; assay type: toxicity; settings: read-out: Ratio IC50
[25] = Selectivity ratio of IC50 for MAGL (unknown origin) to IC50 for rat FFAH expressed in Escherichia coli; assay type: toxicity
CYP1A2 = test: Selectivity ratio of IC50 for CYP1A2 in human liver microsomes to IC50 for human transmembrane domain deficient FFAH expressed in Escherichia coli; assay type: toxicity; settings: read-out: Ratio IC50
[26] = Selectivity ratio of IC50 for MAGL (unknown origin) to IC50 for human transmembrane domain deficient FFAH expressed in Escherichia coli; assay type: toxicity
[27] = Intrinsic metabolic stability in rat liver microsomes assessed as metabolic turnover over per mg protein at 1 uM preincubated for 5 mins followed by NADPH cofactor addition and measured after 30 mins by LC-MS/MS analysis; assay type: ADME, Microsome; settings: 0.5 h
[28] = Intrinsic metabolic stability in human liver microsomes assessed as metabolic turnover rate per mg protein at 1 uM preincubated for 5 mins followed by NADPH cofactor addition and measured after 30 mins by LC-MS/MS analysis; assay type: ADME, Microsome; settings: 0.5 h
CYP2D6 = test: Selectivity ratio of IC50 for CYP2D6 in human liver microsomes to IC50 for human transmembrane domain deficient FFAH expressed in Escherichia coli; assay type: toxicity; settings: read-out: Ratio IC50
CYP2C9 [29] = test: Selectivity ratio of IC50 for CYP2C9 in human liver microsomes to IC50 for human transmembrane domain deficient FFAH expressed in Escherichia coli; assay type: toxicity; settings: read-out: Ratio IC50

Chain of Cytochrome P450 2C9 (P11712 whole entry): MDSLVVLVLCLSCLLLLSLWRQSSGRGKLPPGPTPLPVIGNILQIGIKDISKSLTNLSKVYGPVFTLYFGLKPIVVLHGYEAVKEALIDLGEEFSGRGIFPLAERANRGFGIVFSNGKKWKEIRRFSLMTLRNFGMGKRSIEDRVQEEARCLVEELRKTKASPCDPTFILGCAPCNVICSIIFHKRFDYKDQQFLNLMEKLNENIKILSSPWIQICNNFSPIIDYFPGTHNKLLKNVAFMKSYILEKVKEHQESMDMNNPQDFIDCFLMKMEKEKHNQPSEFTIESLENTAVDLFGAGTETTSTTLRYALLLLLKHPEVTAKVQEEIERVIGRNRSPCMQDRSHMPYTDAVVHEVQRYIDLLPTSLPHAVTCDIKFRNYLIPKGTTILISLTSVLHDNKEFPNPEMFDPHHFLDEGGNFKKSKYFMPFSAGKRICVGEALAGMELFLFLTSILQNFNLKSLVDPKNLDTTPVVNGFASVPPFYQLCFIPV
Chain of Cytochrome P450 2C19 (P33261 whole entry): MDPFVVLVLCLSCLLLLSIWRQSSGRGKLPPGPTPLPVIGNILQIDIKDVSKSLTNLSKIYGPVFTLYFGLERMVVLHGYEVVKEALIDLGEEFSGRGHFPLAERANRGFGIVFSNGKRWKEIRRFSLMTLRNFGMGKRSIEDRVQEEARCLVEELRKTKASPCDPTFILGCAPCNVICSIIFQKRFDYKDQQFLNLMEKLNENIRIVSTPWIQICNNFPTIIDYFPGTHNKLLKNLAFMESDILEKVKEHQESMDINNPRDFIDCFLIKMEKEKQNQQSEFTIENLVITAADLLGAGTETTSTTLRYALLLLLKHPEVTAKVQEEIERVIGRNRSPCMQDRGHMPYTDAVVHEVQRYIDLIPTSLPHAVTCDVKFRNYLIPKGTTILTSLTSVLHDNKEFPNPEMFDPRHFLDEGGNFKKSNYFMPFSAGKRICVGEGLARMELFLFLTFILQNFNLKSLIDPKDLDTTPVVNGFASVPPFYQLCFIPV
Chain of Cytochrome P450 3A4 (P08684 whole entry): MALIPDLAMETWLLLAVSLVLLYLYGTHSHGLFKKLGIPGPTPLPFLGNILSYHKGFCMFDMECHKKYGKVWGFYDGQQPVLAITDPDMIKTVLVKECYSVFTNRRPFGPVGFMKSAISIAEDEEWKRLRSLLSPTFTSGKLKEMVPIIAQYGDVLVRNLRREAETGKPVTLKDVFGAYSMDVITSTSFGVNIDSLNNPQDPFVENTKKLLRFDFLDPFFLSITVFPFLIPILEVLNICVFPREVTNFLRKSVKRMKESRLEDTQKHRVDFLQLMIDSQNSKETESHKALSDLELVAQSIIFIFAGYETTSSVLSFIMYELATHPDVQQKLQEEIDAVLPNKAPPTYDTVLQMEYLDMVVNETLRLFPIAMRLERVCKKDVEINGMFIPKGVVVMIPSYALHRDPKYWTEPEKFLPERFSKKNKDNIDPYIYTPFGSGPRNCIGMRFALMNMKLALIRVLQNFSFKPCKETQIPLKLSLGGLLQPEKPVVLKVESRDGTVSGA
Chain of Cytochrome P450 2D6 (P10635 whole entry): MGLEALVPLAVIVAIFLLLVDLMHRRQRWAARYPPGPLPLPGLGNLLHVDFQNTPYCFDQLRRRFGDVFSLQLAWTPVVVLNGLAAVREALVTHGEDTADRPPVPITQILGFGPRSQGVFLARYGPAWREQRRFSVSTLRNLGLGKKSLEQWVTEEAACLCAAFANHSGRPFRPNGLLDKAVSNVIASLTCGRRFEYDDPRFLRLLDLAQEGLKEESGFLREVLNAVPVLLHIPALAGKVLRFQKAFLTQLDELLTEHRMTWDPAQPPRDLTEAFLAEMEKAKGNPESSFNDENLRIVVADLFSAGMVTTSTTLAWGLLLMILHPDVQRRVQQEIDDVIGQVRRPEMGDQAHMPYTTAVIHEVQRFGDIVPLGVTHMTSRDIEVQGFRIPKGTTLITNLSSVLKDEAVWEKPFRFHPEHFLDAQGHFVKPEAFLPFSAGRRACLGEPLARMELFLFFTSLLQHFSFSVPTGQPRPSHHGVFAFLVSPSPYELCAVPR

SMILES | pIC50 (Cytochrome P450 2C19) | pIC50 (Cytochrome P450 2C9) | Kp [1] | concentration at 24 h [2] [µM] | Vd [3] [L/kg] | AUC(0-t) at 48 h [4] [µM·h] | pIC50 (Cytochrome P450 3A4) | concentration at 2 h [6] [µM] | clearance [7] [mL/min/kg] | bioavailability [8] [%] | Kp [10] | Cmax [11] [µM] | pIC50 (Cytochrome P450 2D6) | concentration at 24 h [12] [µM] | Kp [13] | concentration at 24 h [14] [µM] | clearance [16] [mL/min/kg] | Vd [17] [L/kg] | concentration at 2 h [18] [µM] | concentration at 8 h [19] [µM] | further results
Nc1ccc(C(=O)N[C@H]2CC/C(=C\c3cccc(Oc4ccc(C(F)(F)F)cn4)c3)CC2)cn1 (stereo not given) | 5.04 | 5.47 | 0.6 | 4.4 | 0.6 | 152 | < 4.90 | 72.6 | 0.7 | 42 | 9.2 | 8.8 | < 4.90 | 2.5 | 0.6 | 33 | 0.7 | 0.6 | 8.8 | 74.9 | concentration at 32 h [5]: 26.5 µM; concentration at 32 h [9]: 1.9 µM; concentration at 48 h [15]: 1 µM
Cc1cc(C(=O)N[C@H]2CC/C(=C\c3cccc(Oc4ccc(C(F)(F)F)cn4)c3)CC2)cnc1N (stereo not given) | < 4.90 | 5.04 | 0.5 | 3.3 | 1.2 | 109 | < 4.90 | 41 | 0.8 | 46 | 6.9 | 6.7 | < 4.90 | 1.3 | 0.5 | 22 | 0.8 | 1.2 | 6.7 | 37 | selectivity ratio (CYP2C9 [20]): > 5000; selectivity ratio (CYP3A4 [21]): > 5000; selectivity ratio (CYP2C19 [22]): > 5000; concentration at 32 h [5]: 20 µM; selectivity ratio (CYP3A4 [23]): > 5000; selectivity ratio (CYP2C19 [24]): > 5000; Ratio IC50 [25]: > 10000; concentration at 32 h [9]: 1.2 µM; selectivity ratio (CYP1A2): > 5000; Ratio IC50 [26]: > 10000; Drug metabolism [27]: 0.04 to 0.09 nmol/min/mg; Drug metabolism [28]: 0.06 to 0.07 nmol/min/mg; selectivity ratio (CYP2D6): > 5000; concentration at 48 h [15]: 1.1 µM; selectivity ratio (CYP2C9 [29]): > 5000
Nc1ncc(C(=O)N[C@H]2CC/C(=C\c3cccc(Oc4ccc(C(F)(F)F)cn4)c3)CC2)cn1 (stereo not given) | < 4.90 | 5.19 | 0.8 | 7 | 0.8 | 155 | < 4.90 | 31 | 0.6 | 46 | 4.3 | 7.8 | < 4.90 | 4.4 | 0.8 | 23 | 0.6 | 0.8 | 7.2 | 34 | selectivity ratio (CYP2C9 [20]): > 5000; selectivity ratio (CYP3A4 [21]): > 5000; selectivity ratio (CYP2C19 [22]): > 5000; concentration at 32 h [5]: 13 µM; selectivity ratio (CYP3A4 [23]): > 5000; selectivity ratio (CYP2C19 [24]): > 5000; Ratio IC50 [25]: > 10000; concentration at 32 h [9]: 2.3 µM; selectivity ratio (CYP1A2): > 5000; Ratio IC50 [26]: > 10000; Drug metabolism [27]: ≤ 0.04 nmol/min/mg; Drug metabolism [28]: ≤ 0.04 nmol/min/mg; selectivity ratio (CYP2D6): > 5000; concentration at 48 h [15]: 1.3 µM; selectivity ratio (CYP2C9 [29]): > 5000
O=C(N[C@H]1CC/C(=C\c2cccc(Oc3ccc(C(F)(F)F)cn3)c2)CC1)c1cccnc1 (stereo not given) | 5.34 | 5.57 | 1.5 | 0.5 | 0.9 | 47 | 5.62 | 52 | 2.4 | 35 | 10.5 | 7.2 | < 5.00 | 1.1 | 1.5 | 7.7 | 2.4 | 0.9 | 7.2 | 32 | Drug metabolism [27]: < 0.04 nmol/min/mg; Drug metabolism [28]: 0.04 nmol/min/mg

Source: ChEMBL document CHEMBL4371025, “Discovery and evaluation of novel FAAH inhibitors in neuropathic pain model” (Bioorg Med Chem Lett, 2019)
